Read-outs that look alike come from different tables or passages of the source.
Experiments:
Assay in all cases: Efficacy screening assay
Type in all cases: cell-based
MIAPACA2 = conditions: Homo sapiens, MIA PaCa-2, MIAPACA2, pancreas, 72 h
Method: (§1) The experiment was performed by Oncolead GmbH & Co. KG (Karlsfeld , Germany), based on a standardized screening procedure . Cell lines were purchased directly from the ATCC, NCI and DSMZ cell line c ollections. Cells used for the study had undergone less than 20 passages. To ensure the absence of potential contamination and wrong assignment, all cell lines were tested using a whole genome assay (Agilent, USA). All cell lines were grown as recommended by the suppliers and with addition of 100 U/mL penicillin G and 100 µg/mL; streptomycin. Cell growth and treatments were performed in Nunclon D 96 -well plates (NUNC, Germany). The optimal seeding density for each cell line was determined to ensure exponential growth for the duration of the experiment. All cells growing without anti-cancer agents were sub-conﬂuent by the end of the treatment, as determined by visual inspection.
(§2) After an initial 24 h pre-growth period, the compounds were added. The vehicle concentration […]
(§3) was 0.1% DMSO. After incubation at 37°C for 72 h, the culture medium was aspirated, and the cells were precipitated by the addition of 10% trichloroacetic acid (Sigma-Aldrich, Missouri, US). After overnight incubation at 4°C, the plates were washed three times with deionized water. The precipitates were then stained with SRB (0.4% wt/v sulforhodamine B solution in 1% acetic acid, Sigma-Aldrich, Missouri, US). Afterwards, the plates were washed six times with 1% acetic acid to remove unbound stain. After drying the plates at room temperature, the bound SRB was solubilized with 10 mM Tris base and the optical density was measured at 520 nm using a Victor2 plate reader (Perkin Elmer, Germany). Blank OD values were subtracted from mean OD values for each concentration. The nonlinear curve ﬁtting and EC50 calculations were per formed using XLﬁt and algorithm “205” (ID Business […]
(§4) For comparison of EC50 values in Figure 1F, one-way ANOVA with multiple comparison testing (Tukey) was performed. Multiplicity adjusted p -values for the EC50 with sorafenib versus resminostat for each cell line and comparison between cell lines for sorafenib are presented (95% confidence interval for significance testing). For comparison of EC50 data in Figure 2B, one-way ANOVA with multiple comparison testing (Tukey) was performed. Multiplicity adjusted p-values with 95% confidence interval was applied. For the invasion assays in Figure 4, one-way ANOVA with multiple comparison testing (Tukey) was performed. Multiplicity adjusted p-values with 95% confidence interval was applied. The adjusted p-values comparing vehicle control without vs. with platelets and compound

NCIH460 = conditions: NCIH460, lung
Method: as §1, §2, §3, §4

HT29 = conditions: HT29, colon
Method: as §1, §2, §3, §4

UMUC3 = conditions: UMUC3, bladder
Method: as §1, §2, §3, §4

HCT116 = conditions: HCT116, colon
Method: as §1, §2, §3, §4

CLS439 = system: CLS439
Method: as §1, §2, §3, §4

PLCPRF5 = conditions: Homo sapiens, PLC-PRF-5, PLCPRF5, liver, 72 h
Method: as §1, §2, §3, §4

SKMEL5 = conditions: SKMEL5, skin
Method: as §1, §2, §3, §4

UO31 = conditions: UO31, kidney
Method: as §1, §2, §3, §4

NCIH358M = conditions: 72 h, lung
Method: as §1, §2, §3, §4

CALU6 = conditions: CALU6, lung
Method: as §1, §2, §3, §4

COLO678 = conditions: Homo sapiens, COLO-678, COLO678, colon, 72 h
Method: as §1, §2, §3, §4

HS729 = conditions: HS729, muscle, 72 h
Method: as §1, §2, §3, §4

NCIH292 = conditions: NCIH292, lung
Method: as §1, §2, §3, §4

SNB75 = conditions: SNB75, brain
Method: as §1, §2, §3, §4

SF268 = conditions: SF268, brain
Method: as §1, §2, §3, §4

[1] = log of EC50, negative, read-out: log(EC50) (converted)

CN(C)Cc1ccc(S(=O)(=O)n2ccc(/C=C/C(=O)NO)c2)cc1 [resminostat, Resminostat]
EC50 (MIAPACA2; [1]): 2690 nM
EC50 (MIAPACA2; read-out: EC50): 2710 nM
EC50 (NCIH460; Homo sapiens, NCI-H460, 72 h, log of EC50, negative, read-out: log(EC50) (converted)): 2140 nM
EC50 (NCIH460; Homo sapiens, NCI-H460, 72 h, read-out: EC50): 2120 nM
EC50 (NCIH460; 72 h, read-out: EC50): 2120 nM
EC50 (HT29; 72 h, read-out: EC50): 3000 nM
EC50 (HT29; Homo sapiens, HT-29, 72 h, log of EC50, negative, read-out: log(EC50) (converted)): 3020 nM
EC50 (HT29; Homo sapiens, HT-29, 72 h, read-out: EC50): 3000 nM
EC50 (UMUC3; Homo sapiens, UMUC3, 72 h, log of EC50, negative, read-out: log(EC50) (converted)): 3.24 µM
EC50 (UMUC3; Homo sapiens, UMUC3, 72 h, read-out: EC50): 3.24 µM
EC50 (UMUC3; 72 h, read-out: EC50): 3.24 µM
EC50 (HCT116; 72 h, read-out: EC50): 790 nM
EC50 (HCT116; Homo sapiens, HCT-116, 72 h, log of EC50, negative, read-out: log(EC50) (converted)): 794 nM
EC50 (HCT116; Homo sapiens, HCT-116, 72 h, read-out: EC50): 792 nM
EC50 (CLS439; 72 h, CLS439, bladder, log of EC50, negative, read-out: log(EC50) (converted)): 776 nM
EC50 (CLS439; 72 h, CLS439, bladder, read-out: EC50): 781 nM
EC50 (CLS439; CLS439, bladder; 72 h; read-out: EC50): 780 nM
EC50 (PLCPRF5; [1]): 3.39 µM
EC50 (PLCPRF5; read-out: EC50): 3.42 µM
EC50 (SKMEL5; Homo sapiens, SK-MEL-5, 72 h, log of EC50, negative, read-out: log(EC50) (converted)): 1700 nM
EC50 (SKMEL5; Homo sapiens, SK-MEL-5, 72 h, read-out: EC50): 1710 nM
EC50 (SKMEL5; 72 h, read-out: EC50): 1710 nM
EC50 (UO31; Homo sapiens, UO-31, 72 h, log of EC50, negative, read-out: log(EC50) (converted)): 72.4 nM
EC50 (UO31; Homo sapiens, UO-31, 72 h, read-out: EC50): 72.2 nM
EC50 (UO31; 72 h, read-out: EC50): 70 nM
EC50 (NCIH358M; NCI-H358M, log of EC50, negative, read-out: log(EC50) (converted)): 4.37 µM
EC50 (NCIH358M; NCI-H358M, read-out: EC50): 4.33 µM
EC50 (NCIH358M; read-out: EC50): 4.33 µM
EC50 (CALU6; 72 h, read-out: EC50): 2930 nM
EC50 (CALU6; Homo sapiens, Calu-6, 72 h, log of EC50, negative, read-out: log(EC50) (converted)): 2950 nM
EC50 (CALU6; Homo sapiens, Calu-6, 72 h, read-out: EC50): 2930 nM
EC50 (COLO678; [1]): 7.59 µM
EC50 (COLO678; read-out: EC50): 7.62 µM
EC50 (HS729; [1]): 3.39 µM
EC50 (HS729; read-out: EC50): 3.35 µM
EC50 (NCIH292; Homo sapiens, NCI-H292, 72 h, log of EC50, negative, read-out: log(EC50) (converted)): 6.31 µM
EC50 (NCIH292; Homo sapiens, NCI-H292, 72 h, read-out: EC50): 6.27 µM
EC50 (NCIH292; 72 h, read-out: EC50): 6.27 µM
EC50 (SNB75; Homo sapiens, SNB-75, 72 h, log of EC50, negative, read-out: log(EC50) (converted)): 6.76 µM
EC50 (SNB75; Homo sapiens, SNB-75, 72 h, read-out: EC50): 6.75 µM
EC50 (SNB75; 72 h, read-out: EC50): 6.75 µM
EC50 (SF268; Homo sapiens, SF-268, 72 h, log of EC50, negative, read-out: log(EC50) (converted)): 2190 nM
EC50 (SF268; Homo sapiens, SF-268, 72 h, read-out: EC50): 2190 nM
EC50 (SF268; 72 h, read-out: EC50): 2190 nM

— article PMC8100298, “Histone deacetylase inhibitor resminostat in combination with sorafenib counteracts platelet-mediated pro-tumoral effects in hepatocellular carcinoma” (Scientific Reports, 2021)
